# Source: patent US20230255921A1, “COMPOSITION FOR TREATING KCA3.1 CHANNEL-MEDIATED DISEASES COMPRISING PHENYLALKYL CARBAMATE COMPOUND” (CEL[…], priority 2020, published 2023)
# Structures can show the parent of a compound that is named as a salt.
# Columns and labels:
# [1] = tested on: lung fibrosis induced by bleomycin; assay: Bleomycin-induced lung fibrosis mouse model; type: in vivo, C57BL/6 wild-type mice; details: BLM+SF-2 vs BLM group
# Protocol: To confirm the effect of the SF-2 compound according to the present invention on the inhibition of fibrosis, an experiment was performed as follows. First. C57BL/6 wild-type mice (purchased from Orient Bio) were divided into three groups of 6 to 8, and used as a disease-induced group, a drug-administered group, and a normal control. The test mice for each group were treated as follows.
# (1) Disease-induced group: Lung fibrosis was induced by injecting 1.5 units of bleomycin into the airways of test mice. In addition, the same amount of distilled water as the SF-2 compound administered to the following drug-administered group was intraperitoneally injected (100 mg/kg) 5 times a week. In the accompanying drawing, bleomycin (BLM) refers to this disease-induced group.
# (2) Drug-administered group: 1.5 units of bleomycin was injected into the airways of test mice, and then the SF-2 compound of the present invention was intraperitoneally injected (100 mg/kg) five times a week. In the accompanying drawing, BLM+SF-2 indicates the drug-administered group.
# (3) Normal control: The same amount of distilled water as that of bleomycin injected into the disease-induced group was injected into the airways. In addition, the same amount of distilled water as that of the SF-2 compound administered to the drug-administered group was intraperitoneally injected five times a week. In the accompanying drawing, C or Control indicates the normal group.
# The mouse models for each group were treated with drugs for 4 weeks in the same way as described above and immediately killed by administering an excess of an anesthetic, and then the lungs were extracted and used in the subsequent test.
# (§1) The lung and liver tissues extracted from the mouse model were fixed with a paraformaldehyde solution, and cut to a thickness of 1 to 2 mm. The cut tissue was embedded in paraffin and cut to a thickness of 4 μm, the paraffin was removed with xylene, the xylene was removed with ethanol, and the resultant was washed with tap water, thereby obtaining a paraffinized tissue specimen.
# (§2) Tissue immunohistochemistry for collagen, which is a fibrotic marker, in the lung and liver tissues, was performed by Masson's trichrome staining.
# (§3) The degrees of mRNA expression of pro-inflammatory or pro-fibrotic agents in lung and liver tissues extracted from the mouse models were measured by real time PCR. RNAs of these tissues were isolated using a TRIzol reagent (Molecular Research Center. Cincinnati, Ohio), and single-stranded cDNA was synthesized using BcaBEST polymerase (Takara Shuzo), followed by performing PCR.
# [2] = molecular target: KCa3.1 channel (Mus musculus, UniProt O89109); assay: Whole-cell patch-clamp KCa3.1 current in cultured fibroblasts; type: cell-based; parameters: host or cells: fibroblasts (ATCC CRL-2795); details: FIG. 1 and FIG. 2
# Protocol: Fibroblasts (CRL-2795: American Type Culture Collection, VA) were cultured in Dulbecco's Modified Eagle Medium (Hyclone, Logan, Utah). All cells were maintained in 5% CO2 under a humid condition at 37° C. The cultured fibroblasts were exposed to pro-inflammatory agents such as lipopolysaccharides (LPS) and a pro-fibrotic agent TGFβ, and the compounds of Chemical Formulas 2 to 8 of the present invention (hereinafter, referred to as SF-2 to SF-8 compounds) for 24 hours, and then anti-inflammatory and anti-fibrotic effects were tested.
# Whole cell current through the cell membrane in isolated and cultured single fibroblasts was measured using a patch-clamp technique. A voltage ramp was used to apply voltage to whole-cell voltage clamp cells from −100 mV to +100 mV using a micro-glass electrode, the generated current was amplified using an amplifier (EPC-10, HEKA, Lambrecht, Germany) and then recorded at a sampling rate of 1 to 4 kHz. […]
# KCa3.1 current was isolated using the following method. Ina current recorded by injecting 1 μM Ca^2+ into whole-cell voltage clamp cells using a glass electrode and applying 1-ethyl-2-benzimidazolinone (1-EBIO, 100 μM) activating KCa3.1 current, a current inhibited by KCa3.1 channel inhibitor TRAM-34 (10 μM) was determined as the KCa3.1 current, and the recorded current was normalized by division by cell capacitance.
# [3] = tested on: liver fibrosis induced by a CDAHFD diet; assay: CDAHFD diet-induced liver fibrosis mouse model; type: in vivo, C57BL/6 wild-type mice; details: CDAHFD+SF-2 vs CDAHFD group, 100 mg/kg/day five times a week, 16 weeks
# Protocol: To confirm the therapeutic effect of the SF-2 compound of the present invention on liver inflammation and fibrosis, an experiment was performed as follows. First, C57BL/6 wild-type mice (purchased from Orient Bio) were divided into three groups of 6 to 8, and used as a disease-induced group, a drug-administered group, and a normal control. The test mice for each group were treated as follows.
# (1) Drug-induced group: Test mice were fed a CDAHFD diet (choline deficient, L-amino-acid-defined, high-fat diet with 0.1% methionine. A06071302, Research Diets, New Brunswick, N.J.) to induce fatty liver disease and fibrosis. In addition, the same amount of distilled water as that of the SF-2 compound administered to the following drug-administered group five times a week using a zonde (oral tube). In the accompanying drawing, CDAHFD indicates the disease-induced group.
# (2) Drug-administered group: The SF-2 compound of the present invention, together with the CDAHFD diet, was administered (100 mg/kg/day) to test mice five times a week. In the accompanying drawing, CDAHFD+SF-2 indicates the drug-administered group.
# (3) Normal control: Test mice were fed a normal diet. In addition, the same amount of distilled water as that of the SF-2 compound was administered to the drug-administered group five times a week using a zonde (oral tube). In the accompanying drawing, C or Control indicates the normal group.
# The mouse models for each group were treated with drugs for 16 weeks in the same way as described above and immediately killed by administering an excess of an anesthetic, and then the livers were extracted and used in the subsequent test.
# as §1, §2, §3
# [4] = lung tissue, 100 mg/kg intraperitoneal five times a week, 4 weeks, FIG. 6
# Chain of KCa3.1 channel (O89109 whole entry): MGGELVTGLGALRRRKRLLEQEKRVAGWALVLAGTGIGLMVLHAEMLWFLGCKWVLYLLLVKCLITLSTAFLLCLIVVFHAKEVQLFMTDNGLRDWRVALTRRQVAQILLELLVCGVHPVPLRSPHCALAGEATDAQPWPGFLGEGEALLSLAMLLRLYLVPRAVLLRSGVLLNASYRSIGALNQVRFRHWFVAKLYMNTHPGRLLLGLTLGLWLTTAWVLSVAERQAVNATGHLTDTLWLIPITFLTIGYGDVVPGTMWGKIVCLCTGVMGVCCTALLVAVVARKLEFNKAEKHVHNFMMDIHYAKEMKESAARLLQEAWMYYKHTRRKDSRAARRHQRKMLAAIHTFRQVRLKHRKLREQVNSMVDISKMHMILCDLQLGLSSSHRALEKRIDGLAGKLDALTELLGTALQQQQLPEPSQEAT
compound,measurement,setting,value
"NC(=O)OC[C@H](N)Cc1ccccc1 [SF-2, (R)-2-amino-3-phenyl propylcarbamate hydrochloride]","fibrosis degree, Masson's trichrome staining of lung tissue","[1]; intraperitoneal five times a week for 4 weeks, FIG. 5",decreased
same,mRNA expression level of Col1α,[1]; [4],greatly decreased
same,mRNA expression level of Col3α,[1]; [4],greatly decreased
same,mRNA expression level of α-SMA,[1]; [4],greatly decreased
same,KCa3.1 current activated by Ca2+ and 1-EBIO in cells,[2],inhibited by SF-2 in a concentration-dependent manner
same,"degree of blue staining of the liver tissue (Masson's trichrome, collagen fiber)",[3]; FIG. 7,greatly decreased
same,mRNA expression level of Col1α,[3]; FIG. 8,greatly decreased
same,mRNA expression level of Col3α,[3]; FIG. 8,greatly decreased
same,mRNA expression level of α-SMA,[3]; FIG. 8,greatly decreased
